Measurements taken from patent US5677329A, “Styryl-substituted monocyclic and bicyclic heteroaryl compounds which inhibit EGF receptor tyrosine kinase” (Rhone-Poulenc Rorer Pharmaceuticals, Inc., priority 1995, dated 1997).
Entries after “also recorded” stand apart in the source; their conditions may differ. Like-named read-outs stand apart in the source and are kept apart here.

Tests used:
EGF receptor [1] = assay: ATP dependence of EGF-receptor autophosphorylation (10-s assay); type: biochemical; conditions: 15° C., read-out: Km for ATP in EGFR autophosphorylation
Experimental: EGF-Receptor Purification
EGF-receptor purification is based on the procedure of Yarden and Schlessinger. A431 cells are grown in 80 cm^2 bottles to confluency (2×10^7 cells per bottle). The cells are washed twice with PBS and harvested with PBS containing 1.0 mmol EDTA (1 hour at 37° C.), and centrifuged at 600 g for 10 minutes. The cells are solubilized in 1 ml per 2×10^7 cells of cold solubilization buffer (50 mmol Hepes buffer, pH 7.6, 1% Triton X-100, 150 mmol NaCl, 5 mmol EGTA, 1 mmol PMSF, 50 μg/ml aprotinin, 25 mmol benzamidine, 5 μg/ml leupeptic, and 10 μg/ml soybean trypsin inhibitor) for 20 minutes at 4° C. After centrifugation at 100000 g for 30 minutes, the supernatant is loaded onto a WGA-agarose column (100 μl of packed resin per 2×10^7 cells) and shaken for 2 hours at 4° C. The unabsorbed material is removed and the resin washed twice with HTN buffer (50 mmol Hepes, pH 7.6, 0.1% Triton X-100, 150 mmol NaCl), twice with HTN buffer containing 1M NaCl, and twice with HTNG buffer (50 mmol Hepes, pH 7.6, 0.1% Triton X-100, 150 mmol NaCl, and 10% glycerol). The EGF receptor is eluted batchwise with HTNG buffer containing 0.5M N-acetyl-D-glucosamine (200 μl per 2×10^7 cells). The eluted material is stored in aliquots at -70° C. and diluted before use with TMTNG buffer (50 mmol Tris-Mes buffer, pH 7.6, 0.1% Triton X-100, 150 mmol NaCl, 10% glycerol).

EGFR = biological target: T1, EGFR (Homo sapiens, UniProt P00533); assay: Inhibition of EGFR autophosphorylation (anti-EGF-R immunoprecipitate from A431 cells, EGF stimulation); type: biochemical; conditions: for Relative inhibition of EGF receptor kinase, in words: comparison from Table V
T1 construct: endogenous in cells; host or cells: A431 cells (detergent lysate, anti-EGF-R Ab 108 immunoprecipitate)
Experimental: Inhibition of EGFR Autophosphorylation A431 cells were grown to confluence on human fibronectin coated tissue culture dishes. […] The reaction was stopped by adding hot electrophoresis sample buffer. […] "IC50," as used below, refers to the concentration of inhibitor (μM) at which the rate of autophosphorylation is halved, compared with media containing no inhibitor. […] The EGFR autophosphorylation inhibition was evaluated using the same procedure as described hereinbefore.

PDGF receptor kinase = assay: Inhibition of autophosphorylation, procedure repeated with PDGF stimulation; type: biochemical; conditions: Table III
[2] = system: DNA synthesis in PDGF-stimulated cells; assay: Inhibition of cell proliferation as measured by inhibition of DNA synthesis ([3H]thymidine incorporation), PDGF-stimulated cells; type: cell-based; conditions: Table IV; PDGF stimulation; [3H]thymidine incorporation halved
Experimental: (§1) Inhibition of Cell Proliferation as Measured by Inhibition of DNA Synthesis Cells were seeded at 1×10^5 cells per well in 24-well Costar dishes pre-coated with human fibronectin (by incubating for 30 minutes at room temperature with 10 μg/0.5 ml/well). The cells were grown to confluence for 2 days. The medium was changed to DMEM containing […] for 36-48 hours and the cells were then incubated with PDGF, EGF (Toyobo, New York, N.Y.) (20 ng/ml) or serum (10% calf serum, FCS) and different concentrations of the inhibitory compounds. [^3 H]thymidine,(NEN, Boston, Mass.) was added 16-24 hours later at 0.5 μCi/ml for 2 hours. TCA precipitable material was quantitated by scintillation counting (C).

[3] = system: DNA synthesis in serum (FCS)-stimulated cells; assay: Inhibition of cell proliferation as measured by inhibition of DNA synthesis ([3H]thymidine incorporation), serum (10% FCS)-stimulated cells; type: cell-based; conditions: 10% calf serum (FCS); for IC50: Table IV, [3H]thymidine incorporation halved; for inhibition at 1 µM: read-out: Inhibition of [3H]thymidine incorporation, FCS (printed in the IC50 - FCS column)
Experimental: as §1

EGF receptor [4] = conditions: membranes of A431 cells; cited from earlier work
[5] = system: cyclic adenosine 3', 5'-monophosphate (cAMP)-dependent protein kinase; conditions: compared with EGF receptor autophosphorylation; cited from earlier work
other protein kinases = conditions: cited from earlier work
[6] = Table V, comparison with prior art compound C-1, same procedure as before, read-out: IC50, inhibition of EGFR autophosphorylation (Table V)
[7] = Table III, EGF stimulation, autophosphorylation 2 min at 4° C., read-out: IC50 EGF

T1 sequence (P00533 25-1210): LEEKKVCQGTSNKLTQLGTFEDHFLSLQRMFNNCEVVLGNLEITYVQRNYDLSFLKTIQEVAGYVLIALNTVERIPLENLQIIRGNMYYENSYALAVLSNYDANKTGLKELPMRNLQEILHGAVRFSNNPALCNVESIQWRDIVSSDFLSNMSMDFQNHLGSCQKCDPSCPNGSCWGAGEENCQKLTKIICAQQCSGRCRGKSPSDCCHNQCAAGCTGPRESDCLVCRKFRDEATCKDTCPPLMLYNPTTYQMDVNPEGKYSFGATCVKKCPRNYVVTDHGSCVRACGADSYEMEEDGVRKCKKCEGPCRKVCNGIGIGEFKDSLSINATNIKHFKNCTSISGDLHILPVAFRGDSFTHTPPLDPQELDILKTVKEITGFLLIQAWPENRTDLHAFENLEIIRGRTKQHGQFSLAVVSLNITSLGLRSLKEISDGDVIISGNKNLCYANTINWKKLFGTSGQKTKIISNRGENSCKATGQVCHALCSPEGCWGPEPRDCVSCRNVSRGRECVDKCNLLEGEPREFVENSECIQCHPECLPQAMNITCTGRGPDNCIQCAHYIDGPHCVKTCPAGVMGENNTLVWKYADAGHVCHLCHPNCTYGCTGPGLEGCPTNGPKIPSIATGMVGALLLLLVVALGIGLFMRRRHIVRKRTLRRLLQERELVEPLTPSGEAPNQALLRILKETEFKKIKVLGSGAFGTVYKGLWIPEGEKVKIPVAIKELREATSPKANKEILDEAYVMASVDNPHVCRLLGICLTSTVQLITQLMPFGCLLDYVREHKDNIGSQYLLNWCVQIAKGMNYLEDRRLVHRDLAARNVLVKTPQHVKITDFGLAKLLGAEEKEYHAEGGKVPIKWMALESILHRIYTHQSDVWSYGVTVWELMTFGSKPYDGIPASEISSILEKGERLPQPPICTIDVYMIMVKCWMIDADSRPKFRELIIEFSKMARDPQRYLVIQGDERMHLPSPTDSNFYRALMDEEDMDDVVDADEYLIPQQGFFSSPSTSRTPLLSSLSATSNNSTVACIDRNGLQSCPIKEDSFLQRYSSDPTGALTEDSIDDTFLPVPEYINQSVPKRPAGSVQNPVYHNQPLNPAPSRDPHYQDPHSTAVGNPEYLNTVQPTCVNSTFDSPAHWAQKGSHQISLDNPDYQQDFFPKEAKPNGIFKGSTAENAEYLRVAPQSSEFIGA

IC50 (EGFR; [7]) | IC50 (PDGF receptor kinase) | Structure (SMILES) | IC50 [2] | also measured
100 nM | 20000 nM | N#C/C(=C\c1cc(Cl)cc(Cl)c1)c1ccc[n+]([O-])c1 [Example 2, trans-2-(3-pyridyl)-3-(3,5-dichlorophenyl)-2-propenenitrile, N-oxide] | 30 ± 17 nM | IC50 (EGFR; [6]): ≥ 50000 nM; IC50 [3]: 100 nM
500 nM | 6000 nM | COc1ccc(C=C(C#N)c2ccccn2)cc1OC [Example 3, 2-(2-Pyridyl)-3-(3,4-dimethoxyphenyl)-2-propenenitrile] | 14 ± 10 nM | inhibition at 1 µM [3]: 27 ± 5%
400 nM | 10000 nM | COc1ccc(C=C(C#N)c2c[nH]c3ccccc23)cc1OC [Example 5, 2-(3-Indolyl)-3-(3,4-dimethoxyphenyl)-2-propenenitrile] | – | –

Continued, compound first:

Structure (SMILES) | IC50 (EGFR; [7]) | IC50 (PDGF receptor kinase) | IC50 [2] | also measured
Nc1ncnc2c1ncn2[C@@H]1O[C@H](COP(=O)(O)OP(=O)(O)OP(=O)(O)O)[C@@H](O)[C@H]1O [ATP, adenosine triphosphate] | – | – | – | Km (EGF receptor [1]): 7.2 µM
N#C/C(=C\c1cc(Cl)cc(Cl)c1)c1cccnc1 [Example 1A, trans-2-(3-Pyridyl)-3-(3,5-dichlorophenyl)-2-propenenitrile] | – | – | – | IC50 (EGFR; [6]): 2000 nM; Relative inhibition of EGF receptor kinase, in words (EGFR): more potent inhibitor of EGF receptor kinase than C-1; Relative inhibition of EGF receptor kinase, in words (EGFR; listed as 1-A): much better activity than that of its corresponding N-oxide
CC(C)(C)c1cc(C=C(C#N)c2ccccn2)cc(C(C)(C)C)c1 [Example 4, 2-(2-Pyridyl)-3-(3,5-di-tert-butylphenyl)-2-propenenitrile] | – | – | 9 ± 2 nM | IC50 [3]: 500 nM
COc1ccc(C=C(C#N)c2cn(S(=O)(=O)c3ccc([N+](=O)[O-])cc3)c3ccccc23)cc1OC [Example 6, 2-[1-(4-Nitrophenylsulfonyl)indol-3-yl]-3-(3,4-dimethoxyphenyl)-2-propenenitrile] | 20000 nM | > 50000 nM | 17 nM | inhibition at 1 µM [3]: 15%
COc1ccc(C=C(C#N)c2cccnc2)cc1OC [Example 7, 2-(3-Pyridyl)-3-(3,4-dimethoxyphenyl)-2-propenenitrile] | 400 nM | 30000 nM | – | –
N#CC(=Cc1ccc(Cl)cc1Cl)c1cccnc1 [Example C-1, 2-(3-pyridyl)-3-(2,4-dichlorophenyl)-2-propenenitrile, reference compound] | – | – | – | IC50 (EGFR; [6]): ≥ 50000 nM
O=CN/C=C/c1cc(O)ccc1O [erbstatin] | – | – | – | Inhibition of EGF receptor autophosphorylation, in words (EGF receptor [4]): inhibits the autophosphorylation of the EGF receptor; also recorded: Low concentrations of erbstatin are required to inhibit EGF receptor autophosphorylation; Concentrations required to inhibit cAMP-dependent protein kinase, in words [5]: much higher concentrations of erbstatin are required
O=c1c(-c2ccc(O)cc2)coc2cc(O)cc(O)c12 [genistein] | – | – | – | Competition with ATP; inhibition of other protein kinases, in words (other protein kinases): compete with ATP, inhibit other protein kinases
O=c1c(O)c(-c2ccc(O)c(O)c2)oc2cc(O)cc(O)c12 [quercetin] | – | – | – | Competition with ATP; inhibition of other protein kinases, in words (other protein kinases): compete with ATP, inhibit other protein kinases
